This is an account of results in patent US20240067693A1, “POLYPEPTIDES AND USES THEREOF” (MEDIMMUNE LIMITED, priority 2020, published 2024).

The target in test [1] is T1, human amylin receptor (calcitonin receptor co-expressed with receptor activity modifying protein, RAMP3) (hAMYR3) (Homo sapiens, UniProt O60896+P30988).
T1 construct: expressed in transfected cells
T1 sequence (P30988 25-474): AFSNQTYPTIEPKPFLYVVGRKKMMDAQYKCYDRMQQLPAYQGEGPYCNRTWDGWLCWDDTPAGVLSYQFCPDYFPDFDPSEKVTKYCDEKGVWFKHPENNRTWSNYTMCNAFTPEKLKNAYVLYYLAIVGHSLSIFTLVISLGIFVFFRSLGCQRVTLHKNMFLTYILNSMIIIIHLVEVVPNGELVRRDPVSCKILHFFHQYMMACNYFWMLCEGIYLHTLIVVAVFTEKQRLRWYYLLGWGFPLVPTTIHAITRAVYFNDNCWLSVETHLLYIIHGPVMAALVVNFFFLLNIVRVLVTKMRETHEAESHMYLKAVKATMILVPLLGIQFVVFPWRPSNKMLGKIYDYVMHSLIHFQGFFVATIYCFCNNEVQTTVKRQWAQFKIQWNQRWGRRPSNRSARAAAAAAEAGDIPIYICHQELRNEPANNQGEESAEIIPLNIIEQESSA
T1 sequence (O60896 24-148 partner): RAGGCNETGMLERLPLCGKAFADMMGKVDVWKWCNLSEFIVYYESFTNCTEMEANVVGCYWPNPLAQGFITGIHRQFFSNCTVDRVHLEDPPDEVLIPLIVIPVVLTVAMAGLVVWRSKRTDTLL
Description: cAMP production in 1321N1 cells with stable recombinant expression of human amylin receptor (hAMYR3). Format: cell-based. To be noted: for Ratio (selectivity hAMYR vs hCTR, ratio of EC50 values at the two receptors): EC50 hCTR / EC50 hAMYR3; for EC50: cAMP, 1321N1 cells, assay buffer with 0.1% BSA, read-out: EC50 (pM) hAMYR3. The procedure, abridged: (§1)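 Receptor-expressing cells (human receptors in 1321N1, rat receptors in HEK) incubated 30 min at room temperature with peptide in HBSS/HEPES pH 7.4, 0.1% BSA, 0.5 mM IBMX. cAMP read by HTRF; EC50 from 4-parameter fit as % of maximal amylin or calcitonin response.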

Test [2] addresses T2, human calcitonin receptor (hCTR) (Homo sapiens, UniProt P30988).
T2 construct: expressed in transfected cells
T2 sequence (P30988 25-474): T1 sequence (P30988 25-474)
The experiment in a line: cAMP production in 1321N1 cells with stable recombinant expression of human calcitonin receptor (hCTR). Format: cell-based. To be noted: cAMP, 1321N1 cells, assay buffer with 0.1% BSA; read-out: EC50 (pM) hCTR. The method, boiled down:
as §1

Structures are written as SMILES. Numbered stars: 1 amine (or outer) side, 2 acyl side, 3 side chain; on linkers, the order of the positions; unused ones are H or OH. Bridge positions count the residues as written; N and C are the ends. Square brackets hold non-standard residues; d marks the D form. Side chains are listed from the residue outwards. Peptide text beside a SMILES is read from it. * marks the point of attachment. C18 diacid = O=C(O)CCCCCCCCCCCCCCCCC(=O)*; γGlu = O=C(O)[C@H](CCC(=O)[*:2])N[*:1]; Aib = CC(C)(N)C(=O)O

On to `CC[C@H](C)[C@H](NC(=O)[C@@H]1CCCN1C(=O)CNC(=O)[C@H](Cc1ccccc1)NC(=O)[C@H](CC(N)=O)NC(=O)[C@H](CC(N)=O)NC(=O)[C@H](CO)NC(=O)[C@H](CO)NC(=O)[C@H](Cc1c[nH]cn1)NC(=O)C(C)(C)NC(=O)[C@H](CC(C)C)NC(=O)[C@H](Cc1ccccc1)NC(=O)[C@H](CCC(=O)O)NC(=O)[C@H](C)NC(=O)[C@H](CC(C)C)NC(=O)[C@H](CCCNC(=N)N)NC(=O)[C@H](CCC(N)=O)NC(=O)[C@@H](NC(=O)[C@H](C)NC(=O)[C@@H]1CSSC[C@H](NC(=O)[C@H](CCCCN)NC(=O)[C@@H](N)CCCCNC(=O)CC[C@H](NC(=O)CCCCCCCCCCCCCCCCC(=O)O)C(=O)O)C(=O)N[C@@H](CC(N)=O)C(=O)N[C@@H]([C@@H](C)O)C(=O)N[C@@H](C)C(=O)N[C@@H]([C@@H](C)O)C(=O)N1)[C@@H](C)O)C(=O)N[C@@H](CC(C)C)C(=O)N1CCC[C@H]1C(=O)N1CCC[C@H]1C(=O)N[C@H](C(=O)N[C@@H](CC(N)=O)C(=O)N[C@H](C(=O)NCC(=O)N[C@@H](CO)C(=O)N[C@@H](CC(N)=O)C(=O)N[C@H](C(=O)N[C@@H](Cc1ccc(O)cc1)C(N)=O)[C@@H](C)O)C(C)C)[C@@H](C)O` [Peptide 128] (H-K([γGlu-C18 diacid])KCNTATCATQRLAEFL[Aib]HSSNNFGPILPPTNVGSNTY-NH2; disulfide 3-8; N-terminus assumed), for which the “Ratio (selectivity hAMYR vs hCTR, ratio of EC50 values at the two receptors)” value in test [1] turned out to be 4.8. The half-maximal effective concentration (EC50) in test [1] was found to be 118 pM; in test [2] it was 568 pM.

Turning to `CC[C@H](C)[C@H](NC(=O)[C@@H]1CCCN1C(=O)CNC(=O)[C@H](Cc1ccccc1)NC(=O)[C@H](CC(N)=O)NC(=O)[C@H](CC(N)=O)NC(=O)[C@H](CO)NC(=O)[C@H](CO)NC(=O)[C@H](Cc1c[nH]cn1)NC(=O)C(C)(C)NC(=O)[C@H](CC(C)C)NC(=O)[C@H](Cc1ccccc1)NC(=O)[C@H](CC(N)=O)NC(=O)[C@H](C)NC(=O)[C@H](CC(C)C)NC(=O)[C@H](CCCNC(=N)N)NC(=O)[C@H](CCC(N)=O)NC(=O)[C@@H](NC(=O)[C@H](C)NC(=O)[C@@H]1CSSC[C@H](NC(=O)[C@H](CCCCN)NC(=O)[C@@H](N)CCCCNC(=O)CC[C@H](NC(=O)CCCCCCCCCCCCCCCCC(=O)O)C(=O)O)C(=O)N[C@@H](CC(N)=O)C(=O)N[C@@H]([C@@H](C)O)C(=O)N[C@@H](C)C(=O)N[C@@H]([C@@H](C)O)C(=O)N1)[C@@H](C)O)C(=O)N[C@@H](CC(C)C)C(=O)N1CCC[C@H]1C(=O)NC(C)(C)C(=O)N[C@H](C(=O)N[C@@H](CC(N)=O)C(=O)N[C@H](C(=O)NCC(=O)N[C@@H](CO)C(=O)N[C@@H](CC(N)=O)C(=O)N[C@H](C(=O)N[C@@H](Cc1ccc(O)cc1)C(N)=O)[C@@H](C)O)C(C)C)[C@@H](C)O` [Peptide 97, K(γE-C18diacid)K[CNTATC]ATQRLANFL(Aib)HSSNNFGPILP(Aib)TNVGSNTY-amide] (H-K([γGlu-C18 diacid])KCNTATCATQRLANFL[Aib]HSSNNFGPILP[Aib]TNVGSNTY-NH2; disulfide 3-8; N-terminus assumed), in test [1], the “Ratio (selectivity hAMYR vs hCTR, ratio of EC50 values at the two receptors)” value is 1 and the half-maximal effective concentration (EC50) is 684 pM. Further, in test [2], the concentration for a half-maximal effect (EC50) came out at 944 pM.

On to `CC[C@H](C)[C@H](NC(=O)[C@@H]1CCCN1C(=O)CNC(=O)[C@H](Cc1ccccc1)NC(=O)[C@H](CC(N)=O)NC(=O)[C@H](CC(N)=O)NC(=O)[C@H](CO)NC(=O)[C@H](CO)NC(=O)[C@H](Cc1c[nH]cn1)NC(=O)C(C)(C)NC(=O)[C@H](CC(C)C)NC(=O)[C@H](Cc1ccccc1)NC(=O)[C@H](CC(N)=O)NC(=O)[C@H](C)NC(=O)[C@H](CC(C)C)NC(=O)[C@H](CCCNC(=N)N)NC(=O)[C@H](CCC(N)=O)NC(=O)[C@@H](NC(=O)[C@H](C)NC(=O)[C@@H]1CSSC[C@H](NC(=O)[C@H](CCCCN)NC(=O)[C@@H](N)CCCCNC(=O)CC[C@H](NC(=O)CCCCCCCCCCCCCCCCC(=O)O)C(=O)O)C(=O)N[C@@H](CC(N)=O)C(=O)N[C@@H]([C@@H](C)O)C(=O)N[C@@H](C)C(=O)N[C@@H]([C@@H](C)O)C(=O)N1)[C@@H](C)O)C(=O)N[C@@H](CC(C)C)C(=O)N1CCC[C@H]1C(=O)N1CCC[C@H]1C(=O)N[C@H](C(=O)N[C@@H](Cc1c[nH]cn1)C(=O)N[C@H](C(=O)NCC(=O)N[C@@H](CO)C(=O)N[C@@H](CCC(=O)O)C(=O)N[C@H](C(=O)N[C@@H](Cc1ccc(O)cc1)C(N)=O)[C@@H](C)O)C(C)C)[C@@H](C)O` [Peptide 146] (H-K([γGlu-C18 diacid])KCNTATCATQRLANFL[Aib]HSSNNFGPILPPTHVGSETY-NH2; disulfide 3-8; N-terminus assumed), for which, in test [1], the “Ratio (selectivity hAMYR vs hCTR, ratio of EC50 values at the two receptors)” value worked out at 1.9 and the EC50 was found to be 2530 pM. Further, the half-maximal effective concentration (EC50) in test [2] was 4870 pM.

For the compound `CC[C@H](C)[C@H](NC(=O)[C@@H]1CCCN1C(=O)CNC(=O)[C@H](Cc1ccccc1)NC(=O)[C@H](CC(N)=O)NC(=O)C(C)(C)NC(=O)[C@H](CO)NC(=O)[C@H](CO)NC(=O)[C@H](Cc1c[nH]cn1)NC(=O)[C@@H](NC(=O)[C@H](CC(C)C)NC(=O)[C@H](Cc1ccccc1)NC(=O)[C@H](CC(N)=O)NC(=O)[C@H](C)NC(=O)[C@H](CC(C)C)NC(=O)[C@H](CCCNC(=N)N)NC(=O)[C@H](CCC(N)=O)NC(=O)[C@@H](NC(=O)[C@H](C)NC(=O)[C@@H]1CSSC[C@H](NC(=O)[C@H](CCCCN)NC(=O)[C@@H](N)CCCCNC(=O)CC[C@H](NC(=O)CCCCCCCCCCCCCCCCC(=O)O)C(=O)O)C(=O)N[C@@H](CC(N)=O)C(=O)N[C@@H]([C@@H](C)O)C(=O)N[C@@H](C)C(=O)N[C@@H]([C@@H](C)O)C(=O)N1)[C@@H](C)O)C(C)C)C(=O)N[C@@H](CC(C)C)C(=O)N1CCC[C@H]1C(=O)N1CCC[C@H]1C(=O)N[C@H](C(=O)N[C@@H](CC(N)=O)C(=O)N[C@H](C(=O)NCC(=O)N[C@@H](CO)C(=O)N[C@@H](CC(N)=O)C(=O)N[C@H](C(=O)NC(C)(C)C(N)=O)[C@@H](C)O)C(C)C)[C@@H](C)O` [Peptide 85, K(γE-C18diacid)K[CNTATC]ATQRLANFLVHSS(Aib)NFGPILPPTNVGSNT(Aib)-amide] (H-K([γGlu-C18 diacid])KCNTATCATQRLANFLVHSS[Aib]NFGPILPPTNVGSNT[Aib]-NH2; disulfide 3-8; N-terminus assumed), in test [1], the “Ratio (selectivity hAMYR vs hCTR, ratio of EC50 values at the two receptors)” value came to 4 and the concentration giving a half-maximal response (EC50) is 806 pM. The EC50 in test [2] amounted to 3100 pM.

Take `CC(C)C[C@H](NC(=O)[C@H](CCCNC(=N)N)NC(=O)[C@H](CCC(N)=O)NC(=O)[C@@H](NC(=O)[C@H](C)NC(=O)[C@@H]1CSSC[C@H](NC(=O)[C@H](CCCCN)NC(=O)[C@@H](N)CCCCNC(=O)CC[C@H](NC(=O)CCCCCCCCCCCCCCCCC(=O)O)C(=O)O)C(=O)N[C@@H](CC(N)=O)C(=O)N[C@@H]([C@@H](C)O)C(=O)N[C@@H](C)C(=O)N[C@@H]([C@@H](C)O)C(=O)N1)[C@@H](C)O)C(=O)N[C@@H](C)C(=O)N[C@@H](CC(N)=O)C(=O)N[C@@H](Cc1ccccc1)C(=O)N[C@@H](CC(C)C)C(=O)N[C@@H](CCCNC(=N)N)C(=O)N[C@@H](Cc1c[nH]cn1)C(=O)N[C@@H](CO)C(=O)N[C@@H](CO)C(=O)N[C@@H](CC(N)=O)C(=O)N[C@@H](CC(N)=O)C(=O)N[C@@H](Cc1ccccc1)C(=O)NCC(=O)N1CCC[C@H]1C(=O)NC(C)(C)C(=O)N[C@@H](CC(C)C)C(=O)N1CCC[C@H]1C(=O)N1CCC[C@H]1C(=O)N[C@H](C(=O)N[C@@H](CC(N)=O)C(=O)N[C@H](C(=O)NCC(=O)N[C@@H](CO)C(=O)N[C@@H](CC(N)=O)C(=O)N[C@H](C(=O)N[C@@H](Cc1ccc(O)cc1)C(N)=O)[C@@H](C)O)C(C)C)[C@@H](C)O` [Peptide 107, K(γE-C18diacid)K[CNTATC]ATQRLANFLRHSSNNFGP(Aib)LPPTNVGSNTY-amide] (H-K([γGlu-C18 diacid])KCNTATCATQRLANFLRHSSNNFGP[Aib]LPPTNVGSNTY-NH2; disulfide 3-8; N-terminus assumed): in test [1], the “Ratio (selectivity hAMYR vs hCTR, ratio of EC50 values at the two receptors)” value is listed as 25 and the concentration for a half-maximal effect (EC50) was 1070 pM. Besides, the EC50 in test [2] worked out at 26300 pM.
